Measurements as given in patent US10364256B2 (GlaxoSmithKline Intellectual Property Development Limited, priority 2015, dated 2019).
Read-outs that look alike come from different tables or passages of the source.

Legend:
[1] = system: NQO1 specific enzyme activity in BEAS-2B cells (marker for NRF2 activation); experiment: BEAS-2B NQO1 MTT Assay; type: cell-based; conditions: Homo sapiens, compound incubated 48 hours, read-out: EC50 (NQO1 specific enzyme activity induction)
How it was run: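 NQO1 specific activity induction is derived from the rate of MTT reduction (ΔOD/min, 570 nm, 30 min kinetic read) in crude lysates of BEAS-2B cells exposed to compound for 48 h. A 3-parameter fit gives EC50, reported as pEC50; part of each lysate goes to Cell Titer Glo.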

[2] = biological target: T1, Keap1 Kelch domain (321-609) / TAMRA-labeled 16mer NRF2 peptide (ETGE motif) (Homo sapiens, UniProt Q14145); experiment: NRF2-Keap1 FP Assay (Keap1 Kelch fluorescence polarization); type: binding; conditions: 20 nM Keap1 (321-609), 8 nM Tamra labeled peptide
T1 construct: the Kelch domain (321-609) of Keap1 is used
How it was run: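 Compound dilutions (3-fold) were incubated 1 hr at room temperature with 20 nM Keap1 Kelch (321-609) and 8 nM TAMRA-labeled ETGE 16mer peptide. Buffer was 50 mM Tris pH 8.0, 100 mM NaCl, 5 mM MgCl2, 1 mM DTT, 2 mM CHAPS, 0.005% BSA. Fluorescence polarization (mP) was normalized to controls and fitted with a four-parameter equation to give pIC50.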

T1 sequence (Q14145 321-609): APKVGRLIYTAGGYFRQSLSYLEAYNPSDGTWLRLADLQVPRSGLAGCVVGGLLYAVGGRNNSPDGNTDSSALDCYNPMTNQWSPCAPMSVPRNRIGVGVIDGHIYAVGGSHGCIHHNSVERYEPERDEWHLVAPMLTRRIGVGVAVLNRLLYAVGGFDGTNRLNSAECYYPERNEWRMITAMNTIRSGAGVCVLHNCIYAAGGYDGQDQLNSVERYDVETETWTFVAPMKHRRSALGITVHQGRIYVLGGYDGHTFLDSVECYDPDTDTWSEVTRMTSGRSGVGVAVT

SMILES | IC50 [2] [nM] | EC50 ([1]; BEAS-2B, 48 h) [nM] | EC50 [1] [nM]
CCCC1CCCCN1C(=O)c1cccc(-c2cccc(-n3ncc(C(=O)O)c3C3CC3c3cccnn3)c2)c1 (stereo not shown) [Example 41, 1-[3′-(2-Propyl-piperidine-1-carbonyl)-biphenyl-3-yl]-5-(2-pyridazin-3-yl-cyclopropyl)-1H-pyrazole-4-carboxylic Acid] | 10 to 100 | 1000 to 10000 | –
Cn1cc([C@H]2C[C@@H]2c2c(C(=O)O)cnn2-c2cccc(-c3cccc(OCc4cccc(-c5ccccc5)c4)c3)c2)nn1 (racemic) [Example 238, 1-(3′-([1,1′-Biphenyl]-3-ylmethoxy)-[1,1′-biphenyl]-3-yl)-5-((1,2- trans)-2-(1-methyl-1H-1,2,3-triazol-4-yl)cyclopropyl)-1H-pyrazole-4-carboxylic acid] | 100 to 1000 | – | 100 to 1000
Cn1cc(C2CC2c2c(C(=O)O)cnn2-c2cccc(-c3cccc(OC4CCCN(C(=O)OC(C)(C)C)C4)c3)c2)nn1 (stereo not shown) [Example 232, 1-(3′-((1-(tert-Butoxycarbonyl)piperidin-3-yl)oxy)-[1,1′-biphenyl]-3-yl)-5-(2-(1-methyl-1H-1,2,3-triazol-4-yl)cyclopropyl)-1H-pyrazole-4-carboxylic acid] | 100 to 1000 | – | 100 to 1000
Cn1cc(C2CC2c2c(C(=O)O)cnn2-c2cccc(-c3cccc(OCc4cccc(F)c4)c3)c2)nn1 (stereo not shown) [Example 224, 1-(3′-((3-Fluorobenzyl)oxy)-[1,1′-biphenyl]-3-yl)-5-(2-(1-methyl-1H-1,2,3-triazol-4-yl)cyclopropyl)-1H-pyrazole-4-carboxylic acid] | 100 to 1000 | – | 100 to 1000
CC1(C)CCc2cnn(-c3cccc(-c4cccc(-n5ncc(C(=O)O)c5C(F)(F)F)n4)c3)c21 [Example 204, 1-(6-(3-(6,6-Dimethyl-5,6-dihydrocyclopenta[c]pyrazol-1(4H)-yl)phenyl)pyridin-2-yl)-5-(trifluoromethyl)-1H-pyrazole-4-carboxylic Acid] | 100 to 1000 | – | 100 to 1000
Cn1cc(C2CC2c2c(C(=O)O)cnn2-c2cccc(-c3cccc(OCCC(C)(C)C)c3)c2)nn1 (stereo not shown) [Example 225, 1-(3′-(3,3-Dimethylbutoxy)-[1,1′-biphenyl]-3-yl)-5-(2-(1-methyl-1H-1,2,3-triazol-4-yl)cyclopropyl)-1H-pyrazole-4-carboxylic acid] | 10 to 100 | – | 10 to 100
CCCC1(C)CCc2cnn(-c3cccc(-c4cccc(-n5ncc(C(=O)O)c5C5CC5)c4)c3)c21 (stereo not shown) [Example 205, 5-Cyclopropyl-1-(3′-(6-methyl-6-propyl-5,6-dihydrocyclopenta[c]pyrazol-1(4H)-yl)-[1,1′-biphenyl]-3-yl)-1H-pyrazole-4-carboxylic Acid] | 100 to 1000 | – | 100 to 1000
CCC[C@@H]1CCCCN1C(=O)c1cccc(-c2cccc(-n3ncc(C(=O)O)c3C3CC3c3cn(C)nn3)n2)c1 (stereo partly drawn) [Example 196, 5-(2-(1-Methyl-1H-1,2,3-triazol-4-yl)cyclopropyl)-1-(6-(3-((R)-2-propylpiperidine-1-carbonyl)phenyl)pyridin-2-yl)-1H-pyrazole-4-carboxylic Acid] | 10 to 100 | 100 to 1000 | –
CCC[C@@H]1CCCCN1C(=O)c1cccc(-c2cccc(-n3ncc(C(=O)O)c3C3CC3c3cn(C)nn3)c2)c1F (stereo partly drawn) [Example 57, 1-(2′-Fluoro-3′-((R)-2-propylpiperidine-1-carbonyl)-[1,1′-biphenyl]-3-yl)-5-(2-(1-methyl-1H-1,2,3-triazol-4-yl)cyclopropyl)-1H-pyrazole-4-carboxylic Acid] | 10 to 100 | 10 to 100 | –
C[C@@H]1CCC[C@H](C)N1C(=O)c1cccc(-c2cccc(-n3ncc(C(=O)O)c3C3CC3)c2)c1F [Example 21, 5-Cyclopropyl-1-(3-{3-[(2R,6S)-2,6-dimethylpiperidine-1-carbonyl]-2-fluorophenyl}phenyl)-1H-pyrazole-4-carboxylic Acid] | 10 to 100 | – | 100 to 1000
CC[C@@H]1CN(Cc2cccc(-c3cccc(-n4ncc(C(=O)O)c4C4CC4c4cn(C)nn4)c3)c2)Cc2ccccc2O1 (stereo partly drawn) [Example 129, 1-(3′-(((R)-2-ethyl-2,3-dihydrobenzo[f][1,4]oxazepin-4(5H)-yl)methyl)-[1,1′-biphenyl]-3-yl)-5-(2-(1-methyl-1H-1,2,3-triazol-4-yl)cyclopropyl)-1H-pyrazole-4-carboxylic Acid] | 10 to 100 | – | 100 to 1000

Now from value to molecule, other results behind:

IC50 [2] [nM] | SMILES | EC50 ([1]; BEAS-2B, 48 h) [nM] | EC50 [1] [nM]
10 to 100 | Cn1cc([C@@H]2C[C@H]2c2c(C(=O)O)cnn2-c2cccc(-c3cccc(OC[C@H]4CC[C@H](C(F)(F)F)CC4)c3)c2)nn1 (racemic) [Example 146, 5-((1,2-trans)-2-(1-Methyl-1H-1,2,3-triazol-4-yl)cyclopropyl)-1-(3′-(((1r,4R)-4-(trifluoromethyl)cyclohexyl)methoxy)-[1,1′-biphenyl]-3-yl)-1H-pyrazole-4-carboxylic acid] | – | 10 to 100
10 to 100 | Cn1cc(C2CC2c2c(C(=O)O)cnn2-c2cccc(-c3cccc(-n4ncc5c4C(C)(C)CC5)c3)c2)nn1 (stereo not shown) [Example 212, 1-(3′-(6,6-Dimethyl-5,6-dihydrocyclopenta[c]pyrazol-1(4H)-yl)-[1,1′-biphenyl]-3-yl)-5-(2-(1-methyl-1H-1,2,3-triazol-4-yl)cyclopropyl)-1H-pyrazole-4-carboxylic Acid] | – | 100 to 1000
10 to 100 | COC(c1cccc(-c2cccc(-n3ncc(C(=O)O)c3C3CC3c3cn(C)nn3)c2)c1)C1CCCCC1 (stereo not shown) [Example 244, 1-(3′-(Cyclohexyl(methoxy)methyl)-[1,1′-biphenyl]-3-yl)-5-(2-(1-methyl-1H-1,2,3-triazol-4-yl)cyclopropyl)-1H-pyrazole-4-carboxylic acid] | – | 100 to 1000
10 to 100 | Cn1cc([C@@H]2C[C@H]2c2c(C(=O)O)cnn2-c2cccc(-c3cccc(OCC4CCCCC4)c3F)c2)nn1 (racemic) [Example 152, 1-(3′-(Cyclohexylmethoxy)-2′-fluoro-[1,1′-biphenyl]-3-yl)-5-((1,2-trans)-2-(1-methyl-1H-1,2,3-triazol-4-yl)cyclopropyl)-1H-pyrazole-4-carboxylic Acid] | – | 10 to 100
10 to 100 | CC(Oc1cccc(-c2cccc(-n3ncc(C(=O)O)c3C3CC3c3cn(C)nn3)c2)c1)C1CC1 (stereo not shown) [Example 231, 1-(3′-(1-Cyclopropylethoxy)-[1,1′-biphenyl]-3-yl)-5-(2-(1-methyl-1H-1,2,3-triazol-4-yl)cyclopropyl)-1H-pyrazole-4-carboxylic acid] | – | 100 to 1000
10 to 100 | Cn1cc([C@@H]2C[C@H]2c2c(C(=O)O)cnn2-c2cccc(-c3cccc(OCC4CCCCC4C(F)(F)F)c3)c2)nn1 (mixture of isomers) [Example 148, 5-((1,2-trans)-2-(1-Methyl-1H-1,2,3-triazol-4-yl)cyclopropyl)-1-(3′-((2-(trifluoromethyl)cyclohexyl)methoxy)-[1,1′-biphenyl]-3-yl)-1H-pyrazole-4-carboxylic acid] | – | 10 to 100
100 to 1000 | Cn1cc([C@@H]2C[C@H]2c2c(C(=O)O)cnn2-c2cccc(-c3cccc(OC(C4CCCCC4)C(F)(F)F)c3)c2)nn1 (mixture of isomers) [Example 157, 1-(3′-(1-Cyclohexyl-2,2,2-trifluoroethoxy)-[1,1′-biphenyl]-3-yl)-5-((1,2-trans)-2-(1-methyl-1H-1,2,3-triazol-4-yl)cyclopropyl)-1H-pyrazole-4-carboxylic Acid] | – | 10 to 100
100 to 1000 | CCC1CCC(COc2cccc(-c3cccc(-n4ncc(C(=O)O)c4[C@@H]4C[C@H]4c4cn(C)nn4)c3)c2)CC1 (mixture of isomers) [Example 150, 1-(3′-((4-Ethylcyclohexyl)methoxy)-[1,1′-biphenyl]-3-yl)-5-((1,2-trans)-2-(1-methyl-1H-1,2,3-triazol-4-yl)cyclopropyl)-1H-pyrazole-4-carboxylic acid] | – | 10 to 100
10 to 100 | COC(CC1CCCCC1)c1cccc(-c2cccc(-n3ncc(C(=O)O)c3C3CC3c3cn(C)nn3)c2)c1 (stereo not shown) [Example 216, 1-(3′-(2-Cyclohexyl-1-methoxyethyl)-[1,1′-biphenyl]-3-yl)-5-(2-(1-methyl-1H-1,2,3-triazol-4-yl)cyclopropyl)-1H-pyrazole-4-carboxylic Acid] | – | 10 to 100
10 to 100 | COC(c1cccc(-c2cccc(-n3ncc(C(=O)O)c3C3CC3c3cn(C)nn3)c2)c1)C1CCCC1 (stereo not shown) [Example 183, 1-(3′-(Cyclopentyl(methoxy)methyl)-[1,1′-biphenyl]-3-yl)-5-(2-(1-methyl-1H-1,2,3-triazol-4-yl)cyclopropyl)-1H-pyrazole-4-carboxylic acid] | – | 100 to 1000
100 to 1000 | Cn1cc([C@@H]2C[C@H]2c2c(C(=O)O)cnn2-c2cccc(-c3cccc(OCC4CCCC(C(F)(F)F)C4)c3)c2)nn1 (mixture of isomers) [Example 147, 5-((1,2-trans)-2-(1-Methyl-1H-1,2,3-triazol-4-yl)cyclopropyl)-1-(3′-((3-(trifluoromethyl)cyclohexyl)methoxy)-[1,1′-biphenyl]-3-yl)-1H-pyrazole-4-carboxylic acid] | – | 10 to 100
100 to 1000 | Cn1cc([C@@H]2C[C@H]2c2c(C(=O)O)cnn2-c2cccc(-c3cncc(OCC4CCCCC4)c3)c2)nn1 (racemic) [Example 246, 1-(3-(5-(Cyclohexylmethoxy)pyridin-3-yl)phenyl)-5-(trans-2-(1-methyl-1H-1,2,3-triazol-4-yl)cyclopropyl)-1H-pyrazole-4-carboxylic Acid] | – | 1000 to 10000
